{
  "source": "patent US20260223850A1",
  "about": "“SUBSTITUTED PYRROLIDONE COMPOUND, PREPARATION METHOD THEREFOR, COMPOSITION AND APPLICATION THEREOF” (QINGDAO KINGAGROOT CHEMICAL COMPOUND CO., LTD., priority 2023, published 2026)",
  "assay_type_in_all_cases": "in vivo",
  "key": {"Echinochloa crusgalli": {"system": "Echinochloa crusgalli", "assay": "Seedling stage sealing experiment for water-seeding", "conditions": "120 g a.i./ha, 15 days, fresh weight control rate"}, "Digitaria sanguinalis": {"system": "Digitaria sanguinalis", "assay": "Seedling stage sealing experiment for water-seeding", "conditions": "120 g a.i./ha, 15 days, fresh weight control rate", "procedure,_shortened": "(§1)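 Read-out: 0–9 damage level from fresh-weight control rate (9 = completely dead, 1 = under 10%, 0 = no effect), averaged over triplicates, taken 15 days after spraying. Doses were 120, 60, 30 and 15 g a.i./ha, acetone/water solution, spray tower.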"}, "Echinochloa phyllopogon": {"system": "Echinochloa phyllopogon", "assay": "Seedling stage sealing experiment for water-seeding", "conditions": "120 g a.i./ha, 15 days, fresh weight control rate", "procedure,_shortened": "as §1"}, "Huaidao (rice cultivar)": {"system": "Huaidao (rice cultivar)", "assay": "Seedling stage sealing experiment for water-seeding (crop safety)", "conditions": "120 g a.i./ha, 15 days, fresh weight control rate; for Huaidao (rice cultivar) plant damage level (growth control rate): spray, seedling stage sealing for water-seeding; for Huaidao (rice cultivar) plant damage level: seedling stage sealing", "procedure,_shortened": "as §1"}, "[1]": {"conditions": "spray, seedling stage sealing for water-seeding"}},
  "data": [
    {"smiles": "CCn1ncc(NC(=O)[C@H]2C(=O)N(C)C[C@@H]2c2cccc(C(F)(F)F)c2)c1C(F)(F)F", "note": "[535′]", "values": [
      {"measurement": "Echinochloa crusgalli activity level (growth control rate)", "setting": "Echinochloa crusgalli; [1]", "result": 9},
      {"measurement": "Digitaria sanguinalis activity level (growth control rate)", "setting": "Digitaria sanguinalis; [1]", "result": 9},
      {"measurement": "Echinochloa phyllopogon activity level (growth control rate)", "setting": "Echinochloa phyllopogon; [1]", "result": 9},
      {"measurement": "Huaidao (rice cultivar) plant damage level (growth control rate)", "setting": "Huaidao (rice cultivar)", "result": 0}
    ]},
    {"smiles": "COCn1ncc(NC(=O)[C@H]2C(=O)N(C)C[C@@H]2c2cccc(C(F)(F)F)c2)c1C1CC1", "note": "[540′]", "values": [
      {"measurement": "Echinochloa crusgalli activity level (growth control rate)", "setting": "Echinochloa crusgalli; [1]", "result": 9},
      {"measurement": "Digitaria sanguinalis activity level (growth control rate)", "setting": "Digitaria sanguinalis; [1]", "result": 9},
      {"measurement": "Echinochloa phyllopogon activity level (growth control rate)", "setting": "Echinochloa phyllopogon; [1]", "result": 9},
      {"measurement": "Huaidao (rice cultivar) plant damage level (growth control rate)", "setting": "Huaidao (rice cultivar)", "result": 0}
    ]},
    {"smiles": "Cc1cc(C)cc([C@H]2CN(C)C(=O)[C@@H]2C(=O)Nc2cnn(C)c2C(F)F)c1", "note": "[546′]", "values": [
      {"measurement": "Echinochloa crusgalli activity level (growth control rate)", "setting": "Echinochloa crusgalli; [1]", "result": 9},
      {"measurement": "Digitaria sanguinalis activity level (growth control rate)", "setting": "Digitaria sanguinalis; [1]", "result": 9},
      {"measurement": "Echinochloa phyllopogon activity level (growth control rate)", "setting": "Echinochloa phyllopogon; [1]", "result": 9},
      {"measurement": "Huaidao (rice cultivar) plant damage level (growth control rate)", "setting": "Huaidao (rice cultivar)", "result": 0}
    ]},
    {"smiles": "Cc1cc(C)cc([C@H]2CN(C)C(=O)[C@@H]2C(=O)Nc2cnn(C(C)C)c2C(F)(F)F)c1", "note": "[547′]", "values": [
      {"measurement": "Echinochloa crusgalli activity level (growth control rate)", "setting": "Echinochloa crusgalli; [1]", "result": 9},
      {"measurement": "Digitaria sanguinalis activity level (growth control rate)", "setting": "Digitaria sanguinalis; [1]", "result": 9},
      {"measurement": "Echinochloa phyllopogon activity level (growth control rate)", "setting": "Echinochloa phyllopogon; [1]", "result": 9},
      {"measurement": "Huaidao (rice cultivar) plant damage level (growth control rate)", "setting": "Huaidao (rice cultivar)", "result": 0}
    ]},
    {"smiles": "Cc1cc(C)cc([C@H]2CN(C)C(=O)[C@@H]2C(=O)Nc2cnn(C3CC3)c2C(F)(F)F)c1", "note": "[548′]", "values": [
      {"measurement": "Echinochloa crusgalli activity level (growth control rate)", "setting": "Echinochloa crusgalli; [1]", "result": 9},
      {"measurement": "Digitaria sanguinalis activity level (growth control rate)", "setting": "Digitaria sanguinalis; [1]", "result": 9},
      {"measurement": "Echinochloa phyllopogon activity level (growth control rate)", "setting": "Echinochloa phyllopogon; [1]", "result": "6 (Level 6: growth control rate greater than or equal to 70% and less than 80%)"},
      {"measurement": "Huaidao (rice cultivar) plant damage level (growth control rate)", "setting": "Huaidao (rice cultivar)", "result": 0}
    ]},
    {"smiles": "CN1C[C@H](c2cc(F)cc(Cl)c2)[C@@H](C(=O)Nc2cnn(C(F)F)c2Cl)C1=O", "note": "[554′]", "values": [
      {"measurement": "Echinochloa crusgalli activity level (growth control rate)", "setting": "Echinochloa crusgalli; [1]", "result": 9},
      {"measurement": "Digitaria sanguinalis activity level (growth control rate)", "setting": "Digitaria sanguinalis; [1]", "result": 9},
      {"measurement": "Echinochloa phyllopogon activity level (growth control rate)", "setting": "Echinochloa phyllopogon; [1]", "result": 9},
      {"measurement": "Huaidao (rice cultivar) plant damage level (growth control rate)", "setting": "Huaidao (rice cultivar)", "result": 0}
    ]},
    {"smiles": "CN1C[C@H](c2cc(F)cc(Cl)c2)[C@@H](C(=O)Nc2cnn(C)c2C2CC2)C1=O", "note": "[555′]", "values": [
      {"measurement": "Echinochloa crusgalli activity level (growth control rate)", "setting": "Echinochloa crusgalli; [1]", "result": 9},
      {"measurement": "Digitaria sanguinalis activity level (growth control rate)", "setting": "Digitaria sanguinalis; [1]", "result": 9},
      {"measurement": "Echinochloa phyllopogon activity level (growth control rate)", "setting": "Echinochloa phyllopogon; [1]", "result": 9},
      {"measurement": "Huaidao (rice cultivar) plant damage level (growth control rate)", "setting": "Huaidao (rice cultivar)", "result": 0}
    ]},
    {"smiles": "CN1C[C@H](c2cc(F)cc(C(F)F)c2)[C@@H](C(=O)Nc2cnn(C)c2Cl)C1=O", "note": "[556′]", "values": [
      {"measurement": "Echinochloa crusgalli activity level (growth control rate)", "setting": "Echinochloa crusgalli; [1]", "result": 9},
      {"measurement": "Digitaria sanguinalis activity level (growth control rate)", "setting": "Digitaria sanguinalis; [1]", "result": 9},
      {"measurement": "Echinochloa phyllopogon activity level (growth control rate)", "setting": "Echinochloa phyllopogon; [1]", "result": 9},
      {"measurement": "Huaidao (rice cultivar) plant damage level (growth control rate)", "setting": "Huaidao (rice cultivar)", "result": "2 (Level 2: growth control rate greater than or equal to 10% and less than 20%)"}
    ]},
    {"smiles": "Cc1cc([C@H]2CN(C)C(=O)[C@@H]2C(=O)Nc2cnn(C(F)F)c2Cl)cc(C(F)(F)F)c1", "note": "[560′]", "values": [
      {"measurement": "Echinochloa crusgalli activity level (growth control rate)", "setting": "Echinochloa crusgalli; [1]", "result": 9},
      {"measurement": "Digitaria sanguinalis activity level (growth control rate)", "setting": "Digitaria sanguinalis; [1]", "result": 9},
      {"measurement": "Echinochloa phyllopogon activity level (growth control rate)", "setting": "Echinochloa phyllopogon; [1]", "result": 9},
      {"measurement": "Huaidao (rice cultivar) plant damage level (growth control rate)", "setting": "Huaidao (rice cultivar)", "result": 0}
    ]},
    {"smiles": "Cc1cc([C@H]2CN(C)C(=O)[C@@H]2C(=O)Nc2cnn(C)c2C2CC2)cc(C(F)(F)F)c1", "note": "[561′]", "values": [
      {"measurement": "Echinochloa crusgalli activity level (growth control rate)", "setting": "Echinochloa crusgalli; [1]", "result": 9},
      {"measurement": "Digitaria sanguinalis activity level (growth control rate)", "setting": "Digitaria sanguinalis; [1]", "result": 9},
      {"measurement": "Echinochloa phyllopogon activity level (growth control rate)", "setting": "Echinochloa phyllopogon; [1]", "result": 9},
      {"measurement": "Huaidao (rice cultivar) plant damage level (growth control rate)", "setting": "Huaidao (rice cultivar)", "result": "1 (Level 1: growth control rate less than 10%)"}
    ]},
    {"smiles": "COc1cccc(C2CN(C)C(=O)C2C(=O)Nc2cnn(C)c2Cl)c1", "note": "(stereo not shown) [Compound 28]", "values": [
      {"measurement": "Echinochloa crusgalli activity level (growth control rate)", "setting": "Echinochloa crusgalli; seedling stage sealing", "result": 9},
      {"measurement": "Digitaria sanguinalis activity level (growth control rate)", "setting": "Digitaria sanguinalis; seedling stage sealing", "result": 9},
      {"measurement": "Echinochloa phyllopogon activity level (growth control rate)", "setting": "Echinochloa phyllopogon; seedling stage sealing", "result": 9},
      {"measurement": "Huaidao (rice cultivar) plant damage level", "setting": "Huaidao (rice cultivar)", "result": 0}
    ]},
    {"smiles": "CC(C)Oc1cccc(C2CN(C)C(=O)C2C(=O)Nc2cnn(C)c2Cl)c1", "note": "(stereo not shown) [Compound 29]", "values": [
      {"measurement": "Echinochloa crusgalli activity level (growth control rate)", "setting": "Echinochloa crusgalli; seedling stage sealing", "result": 9},
      {"measurement": "Digitaria sanguinalis activity level (growth control rate)", "setting": "Digitaria sanguinalis; seedling stage sealing", "result": 9},
      {"measurement": "Echinochloa phyllopogon activity level (growth control rate)", "setting": "Echinochloa phyllopogon; seedling stage sealing", "result": 9},
      {"measurement": "Huaidao (rice cultivar) plant damage level", "setting": "Huaidao (rice cultivar)", "result": 0}
    ]},
    {"smiles": "CN1CC(c2cccc(C(F)(F)F)c2)C(C(=O)Nc2cnn(C)c2F)C1=O", "note": "(stereo not shown) [Compound 119]", "values": [
      {"measurement": "Echinochloa crusgalli activity level (growth control rate)", "setting": "Echinochloa crusgalli; seedling stage sealing", "result": 9},
      {"measurement": "Digitaria sanguinalis activity level (growth control rate)", "setting": "Digitaria sanguinalis; seedling stage sealing", "result": 9},
      {"measurement": "Echinochloa phyllopogon activity level (growth control rate)", "setting": "Echinochloa phyllopogon; seedling stage sealing", "result": 9},
      {"measurement": "Huaidao (rice cultivar) plant damage level", "setting": "Huaidao (rice cultivar)", "result": 0}
    ]}
  ]
}
